In patent publication US20230203003A1, “Notch Inhibitors and Uses Thereof” (StemSynergy Therapeutics, Inc., priority 2020, published 2023):
Structures can show the parent of a compound that is named as a salt. Where two headings read alike, the source gives them in different places.

What was measured:
Type in all cases: cell-based
Notch1 = Notch1 Reporter Assay
hNotch1ICD = molecular target: T1, hNotch1ICD (Homo sapiens, UniProt P46531); experiment: Notch1 Reporter Assay (Dox-inducible Notch1-ICD, CSL-responsive luciferase in 293A cells); details: read-out: Notch1 Reporter Assay IC50
T1 construct: pLV[Tet]-Puro-TRE3G>Notch1-ICD; expressed in transfected cells; host or cells: 293A cells
T1 sequence (P46531 1754-2555 limits assumed): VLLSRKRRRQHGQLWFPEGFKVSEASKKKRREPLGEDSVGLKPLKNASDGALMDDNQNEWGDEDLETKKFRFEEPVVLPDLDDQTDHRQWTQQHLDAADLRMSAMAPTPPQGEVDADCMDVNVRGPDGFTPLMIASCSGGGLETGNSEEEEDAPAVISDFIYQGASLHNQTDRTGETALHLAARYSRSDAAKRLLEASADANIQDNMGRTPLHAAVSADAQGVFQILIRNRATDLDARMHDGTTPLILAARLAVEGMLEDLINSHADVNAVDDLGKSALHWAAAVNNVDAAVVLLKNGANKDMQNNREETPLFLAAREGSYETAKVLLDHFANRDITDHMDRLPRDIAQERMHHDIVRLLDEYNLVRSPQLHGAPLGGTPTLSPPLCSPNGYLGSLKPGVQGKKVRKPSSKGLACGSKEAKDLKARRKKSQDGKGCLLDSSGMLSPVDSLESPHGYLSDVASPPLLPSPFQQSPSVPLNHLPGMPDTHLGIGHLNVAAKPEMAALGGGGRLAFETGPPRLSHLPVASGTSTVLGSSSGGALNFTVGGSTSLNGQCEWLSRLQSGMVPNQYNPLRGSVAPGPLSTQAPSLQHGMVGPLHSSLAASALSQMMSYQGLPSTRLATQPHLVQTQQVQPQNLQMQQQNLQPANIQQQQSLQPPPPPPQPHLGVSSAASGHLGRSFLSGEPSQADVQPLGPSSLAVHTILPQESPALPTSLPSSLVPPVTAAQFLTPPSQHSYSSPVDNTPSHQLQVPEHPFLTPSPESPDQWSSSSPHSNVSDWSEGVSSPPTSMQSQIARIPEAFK
Protocol: 293A cells expressing 1) pCMV-Tet-On 3G, 2) pLV[Tet]-Puro-TRE3G>Notch1-ICD, 3) pLV[Tet]-Puro-TRE3G>Notch2-ICD, 4) pLV[Tet]-Puro-TRE3G>Notch3-ICD, and 5) pCSL-RElement-Luc were used. When Doxycycline is added, the Tet-ON gene activates expression of hNotch1ICD, which together with endogenous NTC components binds to CSL responsive elements (pCSL-RElement-Luc) and expresses luciferase. 1 ×× 10^4 cells are plated in 100 µL (96-well format). 24 h later, compounds (10 mM stock in DMSO) are diluted in DMSO to 200X, then added (5 ul into 1 mL) to cell culture media containing 50 ng/mL Dox. This is then added 1:1 to cells. Final DMSO = 0.25%, Dox = 25 ng/mL. After 24 h, media is discarded, and cells are lysed in passive lysis buffer (Promega). Cells are rocked at room temperature for 15 min and then lysate is divided for luciferase assay (Luciferase Assay System, Promega) and cell viability (CellTiter Glo 2.0, Promega). Raw luciferase is normalized to cell viability, and then scaled to DMSO wells. Results are analyzed and IC50′s are determined in GraphPad by nonlinear regression curve fitting (4 parameter) of dose response curves.

[1] = test system: OE33 Esophageal Adenocarcinoma cell line; experiment: OE33 Colony Formation Assay; details: Homo sapiens, OE33, 168 h, OE33 cells, 200 cells/well, 7 days, CellTiter-Glo
Protocol: OE33 Colony Formation Assay
The OE33 Esophageal Adenocarcinoma cell line was cultured and plated into 96-well tissue culture plates under sparse conditions (200 cells/well). Test compounds were serially diluted in DMSO and then into culture media (final DMSO concentration = 0.1%). Compound/media was then added to cells every 48 hours for a total of 7 days. Clonogenic growth was assessed using the CellTiter-Glo reagent, according to manufacturer (Promega) specifications. Percent inhibition was calculated as the percent of luminescence normalized to control (0.1% DMSO) wells. Nonlinear regression curve fitting was performed using GraphPad Prism software to determine EC50′s.

[2] = 293A cells, 24 h, luciferase normalized to cell viability

Compound	IC50 (Notch1; Formate Salt) [µM]	IC50 (Notch1) [µM]	EC50 [1] [µM]	IC50 (hNotch1ICD; value printed in the synthesis heading of the compound) [µM]	IC50 (hNotch1ICD; [2]) [µM]
CC(C)Cn1c(=O)c(C(=O)Nc2cccc(N3CCN(C)CC3)c2)c(O)c2ccccc21 [SSTN-560, 4-hydroxy-1-isobutyl-N-(3-(4-methylpiperazin-1-yl)phenyl)-2-oxo-1,2-dihydroquinoline-3-carboxamide]		14.2			
CC(C)Cn1c(=O)c(C(=O)Nc2ccc(F)c(N3CCN(C)CC3)c2)c(O)c2ccccc21 [584(02)]			2		6
CC(C)Cn1c(=O)c(C(=O)Nc2cccc(F)c2)c(O)c2ccccc21 [compound 538, N-(3-fluorophenyl)-4-hydroxy-1-isobutyl-2-oxo-1,2-dihydroquinoline-3-carboxamide]			1.7		9.6
CC(C)Cn1c(=O)c(C(=O)Nc2cccc(F)c2)c(O)c2c(N3CCNCC3)cccc21 [SSTN-587_HCl salt, N-(3-fluorophenyl)-4-hydroxy-1-isobutyl-2-oxo-5-(piperazin-1-yl)-1,2-dihydroquinoline-3-carboxamide hydrochloride salt]			1.7	3.76	3.8
CC(C)Cn1c(=O)c(C(=O)Nc2cc(F)ccc2N2CCN(C)CC2)c(O)c2ccccc21 [571(02)]			2.5		7.9
CC(C)Cn1c(=O)c(C(=O)Nc2cccc(F)c2)c(O)c2cc(N3CCN(C)CC3)ccc21 [577(02)]			0.66		6.4
CC(C)Cn1c(=O)c(C(=O)Nc2ccc(F)cc2N2CCN(C)CC2)c(O)c2ccccc21 [570(02)]			2		5.6
CC(C)Cn1c(=O)c(C(=O)Nc2ccccc2N2CCN(C)CC2)c(O)c2ccccc21 [568(02)]			2.6		6.8
CC(C)Cn1c(=O)c(C(=O)Nc2cccc(N(C)C3CC3)c2)c(O)c2ccccc21 [compound 561, N-(3-(cyclopropyl(methyl)amino)phenyl)-4-hydroxy-1-isobutyl-2-oxo-1,2-dihydroquinoline-3-carboxamide]			3.9		19.1
CC(C)Cn1c(=O)c(C(=O)Nc2ccon2)c(O)c2ccccc21 [compound 525, 4-hydroxy-1-isobutyl-N-(isoxazol-3-yl)-2-oxo-1,2-dihydroquinoline-3-carboxamide]			7.4		13.8

The next lines start with results.

IC50 (Notch1; Formate Salt) [µM]	IC50 (Notch1) [µM]	EC50 [1] [µM]	IC50 (hNotch1ICD; value printed in the synthesis heading of the compound) [µM]	Compound	IC50 (hNotch1ICD; [2]) [µM]
10.2				CC(C)Cn1c(=O)c(C(=O)Nc2cccc(N3CCN(C)CC3)c2)c(O)c2ccccc21 [SSTN-560 Formate Salt, 4-Hydroxy-1-Isobutyl-N-(3-(4-Methylpiperazin-1-Yl)Phenyl)-2-Oxo-1,2-Dihydroquinoline-3-Carboxamide Formate Salt]	
		0.9		CC(C)Cn1c(=O)c(C(=O)Nc2cccc(N3CCNCC3)c2)c(O)c2ccccc21 [compound 552, 4-hydroxy-1-isobutyl-2-oxo-N-(3-(piperazin-1-yl)phenyl)-1,2-dihydroquinoline-3-carboxamide trifluoro aceticacid]	4.3
		7.7		CC(C)Cn1c(=O)c(C(=O)Nc2cccc(N(C)CC3CC3)c2)c(O)c2ccccc21 [compound 562, N-(3-((cyclopropylmethyl)(methyl)amino)phenyl)-4-hydroxy-1-isobutyl-2-oxo-1,2-dihydroquinoline-3-carboxamide]	15
	7.7			CC(C)Cn1c(=O)c(C(=O)Nc2cccc(N3CCN(C)CC3)c2)c(O)c2ccccc21 [SSTN-560_HCI salt, 4-hydroxy-1-isobutyl-N-(3-(4-methylpiperazin-1-yl)phenyl)-2-oxo-1,2-dihydroquinoline-3-carboxamide]	
		2.5		CC(C)Cn1c(=O)c(C(=O)Nc2cnn(C)c2)c(O)c2ccccc21 [compound 534, 4-hydroxy-1-isobutyl-N-(1-methyl-1H-pyrazol-4-yl)-2-oxo-1,2-dihydroquinoline-3-carboxamide]	11.3
		1.8		CC(C)Cn1c(=O)c(C(=O)Nc2ccc(N3CCN(C)CC3)cc2)c(O)c2ccccc21 [569(02)]	4.9
